US12624050B2, “Three fused ring derivative-containing salt or crystal form and pharmaceutical composition thereof” (Shanghai Hansoh Biomedical Co., Ltd., priority 2019, dated 2026)

Tests used:
SD rats = test: Toxicity test of a 7-day repeatedly intragastric administration in SD rats; assay type: in vivo; settings: 7 days; for tolerance compared with GDC-0077: SD rats, 10, 30 and 60 mg/kg once/day
Description: (§1) • Test compound 1: GDC-0077 • Test compound 2: the compounds of Example 22 and Example 62 3.2.2 Vehicle • Name: 20% aqueousSBE-β-CD (Captisol) solution 3.2.3 Animal Information • Species & strains: Sprague-Dawley (SD) rat • Animal grade: SPF grade • Number and sex of animals: 160 rats, half male and half female. 3.2.4 Instruments • The ADVIA®2120 series Hematology System with Autoslide was used for blood cell counting; • The SYSMEX CA-500 Coagulation Analyzer was used for the detection of coagulation function indicators; • The TBA-120FR Automated Biochemical Analyzer was used for the detection of blood biochemical indicators; • The Easylyte Electrolyte Analyzer was used for the detection of electrolytes; • The liquid mass spectrometry detector model API4000; • The electron spray ionization (ESI) positive ion mode and column type Agilent ZORBAX XDB-C18 (3.5 μm, 2.1×50 mm) were used for bioanalytical detection of plasma samples. 3.3 Experimental Method • 1) In the experiment, 160 rats (80 rats/sex) were divided into 20 groups according to their sex and body weight, wherein 100 rats were used for toxicology study (groups 1 to 10, 5 rats/sex/group) and 60 rats were used for toxicokinetic study (groups 11 to 20, 3 rats/sex/group); • 2) As the vehicle control group, the animals in groups 1 and 11 were intragastrically administered 20% aqueous SBE-β-CD (Captisol) solution; • 3) The animals in groups 2 and 12, groups 3 and 13, and groups 4 and 14 were intragastrically administered 10, 30 and 60 mg/kg of GDC-0077, respectively; • 4) The animals in groups 5 and 15, groups 6 and 16, and groups 7 and 17 were intragastrically administered 10, 30 and 60 mg/kg of the compound of Example 22, respectively; • 5) The animals in groups 8 and 18, groups 9 and 19, groups 10 and 20 were intragastrically administered 10, 30 and 60 mg/kg of the compound of Example 62, respectively; • 5) The animals were administered once a day for 7 consecutive days (the animals in groups 7, 17, 10 and 20 were administered for 6 consecutive days). • 6) The administration volume was 10 mL/kg. • 7) During the experiment, items such as clinical observation, body weight, food intake, clinicopathological indicators (blood cell count, coagulation function, blood biochemistry), toxicokinetics and the like were studied. • 8) All animals were euthanized on Day 8 (the animals in groups 7, 10, 17 and 20 were euthanized after administration on Day 6). • 9) During the experiment, gross anatomical observation was performed on the animals in groups 1 to 10, animals in groups 17 and 20, and dead animals (including animals in toxicological study). Histopathological examination was performed on abnormal tissues, gastrointestinal tissues (such as colon, cecum) and immune tissues (such as thymus). […]

[1] = Toxicokinetics in the 7-day repeated intragastric administration study in SD rats; assay type: in vivo, Sprague-Dawley (SD) rat
Description: as §1

PI3Kα = target: T1, PI3Kα (Homo sapiens, UniProt P42336); test: ADP-Glo Lipid Kinase Assay, PI3Kα kinase activity; assay type: biochemical
T1 construct: purchased Promega #V1721
Procedure: In this experiment, ADP-Glo Lipid Kinase Assay (Promega #V9102) from Promega was used. The lipid kinases PI3Kα/β/γ/δ catalyzed the ATP-to-ADP reaction in the presence of the substrate PIP2:3PS and ATP. The lipid kinase activity was characterized by measuring the ADP content in the reaction, and the half inhibition concentrations IC50 of the compounds on PI3Kα/β/γ/δ kinase activity were obtained.
Kinase reactions were carried out in white 384-well plates (Perkin Elmer #6007299). 2 μL of the compound of various concentrations diluted with ddH2O containing 1% DMSO was added to each well, and 2 μL of ddH2O containing 1% DMSO was added to positive control wells. […] After the reaction was carried out for 20 minutes at room temperature in the dark, the chemiluminescence was measured by BioTek Synergy H1 microplate reader.
The percentage inhibition data of the compound-treated well was calculated from positive control wells (DMSO control wells) and negative control wells (no kinase added) on the plate {% inhibition=100−[(test compound value−negative control value)]/(positive control value-negative control value)×100}. IC50 values were calculated using GraphPad prism and using a four-parameter nonlinear logistic formula to fit the data of different concentrations and corresponding percent inhibition.

[2] = Pharmacokinetic (PK) assay in mice, single intragastric administration; assay type: in vivo; settings: mouse, po, Balb/c male mice, 5 mg/kg, plasma; for AUC(0-t): read-out: Area under the curve AUC0-t; for AUC(0-inf): read-out: Area under the curve AUC0-∞; for half-life: read-out: Half life t1/2 (converted); for MRT: read-out: Mean residence time MRT; for Tmax: read-out: Peak time tmax; for Cmax: read-out: Plasma concentration Cmax
Procedure: The pharmacokinetic assay of the preferred compounds of the examples of the present invention in mice was carried out in Balb/c male mice (Shanghai Jiesijie Laboratory Animal Co., Ltd.).
5.1 Administration route: single intragastric administration.
5.2 Administration dose: 5 mg/10 ml/kg (body weight).
5.3 Formulation: the compound was dissolved in 0.5% CMC-Na by ultrasound to obtain a clear solution or a homogeneous suspension.
5.4 Sampling points: 0.5, 1, 2, 4, 6, 8 and 24 hours after administration.
• 1) 0.1 mL of orbital blood was collected and placed in a K2-EDTA test tube, centrifuged at 1000 to 3000×g at room temperature for 5 to 20 min to separate the plasma, which was then stored at −80° C. • 2) 160 uL of acetonitrile was added to 40 uL of plasma sample for precipitation. After mixing, the sample was centrifuged at 500 to 2000×g for 5 to 20 minutes. • 3) 100 uL of the supernatant after processing was taken and analyzed by LC/MS/MS assay to determine the concentrations of the example compound. 5.6 LC-MS/MS Assay: • Liquid chromatography condition: Shimadzu LC-20AD pump • Mass spectrometry condition: AB Sciex API 4000 mass spectrometer • Chromatographic column: phenomenex Gemiu 5 μm C18 50×4.6 mm • Mobile phase: solution A was 0.1% aqueous formic acid solution, and solution B was acetonitrile • Flow rate: 0.8 mL/min • Elution time: 0 to 4 minutes, gradient elution 5.7 Pharmacokinetics: […]

[3] = doses of 10, 30 and 60 mg/kg once/day

T1 sequence (P42336 whole entry): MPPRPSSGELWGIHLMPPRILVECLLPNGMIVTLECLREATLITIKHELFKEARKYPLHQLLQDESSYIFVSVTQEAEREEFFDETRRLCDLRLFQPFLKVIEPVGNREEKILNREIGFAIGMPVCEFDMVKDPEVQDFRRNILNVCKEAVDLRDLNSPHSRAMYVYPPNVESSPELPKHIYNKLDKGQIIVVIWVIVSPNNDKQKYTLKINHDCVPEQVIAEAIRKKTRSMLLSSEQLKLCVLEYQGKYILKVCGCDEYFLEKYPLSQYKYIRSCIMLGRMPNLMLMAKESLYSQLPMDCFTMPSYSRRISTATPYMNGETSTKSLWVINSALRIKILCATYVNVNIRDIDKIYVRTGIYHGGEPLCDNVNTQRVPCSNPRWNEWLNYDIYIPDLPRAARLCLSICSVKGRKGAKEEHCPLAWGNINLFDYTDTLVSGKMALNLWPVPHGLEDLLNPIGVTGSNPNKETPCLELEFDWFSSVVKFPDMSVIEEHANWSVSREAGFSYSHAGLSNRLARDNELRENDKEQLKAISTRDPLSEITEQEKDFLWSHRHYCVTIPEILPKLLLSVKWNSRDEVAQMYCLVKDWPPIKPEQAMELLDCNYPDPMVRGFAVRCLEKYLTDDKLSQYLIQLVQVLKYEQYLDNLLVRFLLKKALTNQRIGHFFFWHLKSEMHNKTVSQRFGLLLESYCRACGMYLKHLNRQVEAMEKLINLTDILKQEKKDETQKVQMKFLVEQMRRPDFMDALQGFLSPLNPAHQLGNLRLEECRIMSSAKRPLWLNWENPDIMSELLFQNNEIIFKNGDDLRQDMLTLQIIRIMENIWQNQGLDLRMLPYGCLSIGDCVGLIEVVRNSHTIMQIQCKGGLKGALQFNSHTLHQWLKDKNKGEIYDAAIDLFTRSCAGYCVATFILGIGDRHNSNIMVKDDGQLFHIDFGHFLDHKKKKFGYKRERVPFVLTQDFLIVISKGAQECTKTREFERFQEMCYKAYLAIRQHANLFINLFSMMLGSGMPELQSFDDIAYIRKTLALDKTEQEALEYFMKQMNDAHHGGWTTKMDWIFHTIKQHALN
T1 sequence (P27986 whole entry partner): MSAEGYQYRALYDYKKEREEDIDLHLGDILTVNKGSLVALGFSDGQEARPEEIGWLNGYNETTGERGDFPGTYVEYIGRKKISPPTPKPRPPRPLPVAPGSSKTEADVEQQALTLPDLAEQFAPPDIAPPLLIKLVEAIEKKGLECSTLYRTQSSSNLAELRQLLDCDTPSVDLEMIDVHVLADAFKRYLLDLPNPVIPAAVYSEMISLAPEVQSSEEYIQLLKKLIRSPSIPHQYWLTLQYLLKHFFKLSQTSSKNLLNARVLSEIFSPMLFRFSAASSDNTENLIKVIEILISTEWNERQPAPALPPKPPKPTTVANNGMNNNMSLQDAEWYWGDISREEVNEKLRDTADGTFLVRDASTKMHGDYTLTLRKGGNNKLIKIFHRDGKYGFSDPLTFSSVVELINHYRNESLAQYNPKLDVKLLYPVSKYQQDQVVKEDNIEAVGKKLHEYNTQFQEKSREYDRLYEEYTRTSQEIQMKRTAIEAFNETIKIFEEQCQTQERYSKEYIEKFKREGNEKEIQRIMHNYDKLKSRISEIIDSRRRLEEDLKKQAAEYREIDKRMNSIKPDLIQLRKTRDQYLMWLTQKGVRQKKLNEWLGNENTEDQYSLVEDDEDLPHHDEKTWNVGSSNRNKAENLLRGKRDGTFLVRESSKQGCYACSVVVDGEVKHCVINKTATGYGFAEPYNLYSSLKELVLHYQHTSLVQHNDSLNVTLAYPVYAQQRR

Structure (SMILES) | tolerance compared with GDC-0077 (SD rats) | lethal dose (SD rats; SD rats, intragastric once/day) | systemic exposure compared with GDC-0077 at the same dose [1] | Cmax and AUC(0-24 h) compared with GDC-0077 ([1]; dose of 30 mg/kg) | Cmax and AUC(0-24 h) compared with GDC-0077 [1, 3] | IC50 (PI3Kα) | AUC(0-t) [2] | AUC(0-inf) [2] | half-life [2] | MRT [2] | Tmax [2] | Cmax [2]
C[C@H](Nc1ccc2c(c1)OCCn1cc(N3C(=O)SC[C@H]3C(F)F)nc1-2)C(N)=O [Example 22, (S)-2-((2-((R)-4-(difluoromethyl)-2-oxothiazolidin-3-yl)-5,6-dihydrobenzo[f]imidazo[1,2-d][1,4]oxazepin-9-yl)amino)propionamide] | better than that of GDC-0077 | 60 mg/kg | significantly higher than that of GDC-0077 | significantly higher than those of GDC-0077 | significantly higher than those of GDC-0077 |  |  |  |  |  |  | 
C[C@H](Nc1ccc2c(c1)N(C)CCn1cc(N3C(=O)OC[C@H]3C(F)F)nc1-2)C(N)=O [Example 56, (S)-2-((2-((S)-4-(difluoromethyl)-2-oxooxazolidin-3-yl)-7-methyl-6,7-dihydro-5H-benzo[f]imidazo[1,2-d][1,4]diazoheptin-9-yl)amino)propionamide] |  |  |  |  |  | 0.5 nM | 1350 ng·h/mL | 1360 ng·h/mL | 1.6 h | 2.2 h | 0.5 h | 985 ng/mL
C[C@H](Nc1ccc2c(c1)SCCn1cc(N3C(=O)OC[C@H]3C(F)F)nc1-2)C(N)=O [Example 62, (S)-2-((2-((S)-4-(difluoromethyl)-2-oxooxazolidin-3-yl)-5,6-dihydrobenzo[f]imidazo[1,2-d][1,4]thiazepin-9-yl)amino)propionamide] | better than that of GDC-0077 |  |  |  | significantly higher than those of GDC-0077 | 0.1 nM | 3440 ng·h/mL | 3470 ng·h/mL | 1.5 h | 2.8 h | 0.5 h | 1250 ng/mL
